# Read-outs that look alike come from different tables or passages of the source.
# Experiments:
# [1] = test system: ABCA1; test: ABCA1 gene expression by real-time RT-PCR in aortic smooth muscle cells; type: cell-based, human; details: normalized with HPRT, n=1 or 2
# Protocol: (§1) The cells, grown to confluence according to the supplier's instructions (Lonza), were serum-depleted, pre-treated for 1h with increasing concentrations of ACT-333679 (i.e. MRE-269), and incubated in the presence of 10ng/mL PDGF-BB for 24h for Figures 4 and 5, and 6h for Figure 6. The treated cells were then incubated during 4 hours with 10µg/mL of fluorescently labelled DiI-oxLDL (Figures 4 and 5) and their ability to internalise the oxLDL was analysed by fluorescence microscopy (Figure 4) and FACS (Figure 5). FACS allows precise quantification of the number of fluorescent cells (i.e. those that have incorporated fluorescent oxLDL) and the intensity of the incorporated fluorescence per cell (i.e. the quantity of incorporated oxLDL/cell). Nuclei were stained with 4'-6'diamidino-2-phenylindol (DAPI) for analysis by fluorescence microscopy (Figure 4) or cells were directly analysed by flow cytometry (Figure 5). A detailed description of the protocol and apparatus used is given in the art.
# (§2) Regarding Figure 4, representative images of the analysis of 5 fields examined in two experiments (n=2). […]
# (§3) The expression of genes encoding transporters involved in cholesterol efflux (ABCA1: ATP-binding cassette A1 and ABCG1: ATP-binding cassette subfamily G member 1) was measured by real-time RT-PCR. […]
# [2] = test system: ABCG1; test: ABCG1 gene expression by real-time RT-PCR in aortic smooth muscle cells; type: cell-based, human; details: normalized with HPRT, n=1 or 2
# Protocol: as §1, §2, §3
# [3] = test system: vascular smooth muscle cells-derived foam cells; test: Radioisotopic cholesterol efflux assay ([3H]-cholesterol-loaded VSMCs); type: cell-based, human
# Text: Primary cultures of aortic smooth muscle cells (AoSMC) obtained from a human diabetic and obese donor ([…]) were purchased from Lonza (D-AoSMC CloneticsTM). Cells were cultivated on 12-well plates at 50 000 cells/well in a growth medium composed of the Smooth Muscle Basal Medium (SmBM, Lonza) supplemented with 0.2% hEGF, 0.1% insulin, 0.2% hFGF-B, 5% Fetal Bovine Serum (FBS) and 0.1% gentamicin/amphotericin-B (SingleQuots, Lonza, concentrations not specified) according to Lonza's instructions. The foam phenotype was induced when cells reached a subconfluent density. During all the experiments, cells were maintained within an atmosphere enriched with 5% CO2 at 37°C and were used at passages ranging from 6 to 9. […]
# Cholesterol efflux assay was performed as previously described by using [3H]-cholesterol-loaded VSMCs. […] Fractional cholesterol efflux, expressed as a percentage, was calculated as the amount of the radioactivity recovered in the cleared medium divided by the total radioactivity (radioactivity in the medium + radioactivity in the cells). Radioactivity in the cells was obtained after the lipid extraction in a mixture of hexane isopropanol (3:2 v/v) and was determined by liquid scintillation counting on a Wallac Trilux 1450 Microbeta scintillation counter (PerkinElmer, MA, USA). […]
# [4] = test system: human aortic smooth muscle cells; test: Internalisation of DiI-oxLDL by aortic smooth muscle cells (fluorescence microscopy and FACS); type: cell-based; details: 1h pre-treatment, DiI-oxLDL 10 µg/mL 4 hours, read-out: concentration from which incorporation of oxLDL is inhibited
# [5] = pre-treated 1h, then PDGF-BB 10 ng/mL 6h
Structure (SMILES),"basal expression of gene encoding ABCA1 ([1]; basal, no PDGF-BB)","basal expression of gene encoding ABCG1 ([2]; basal, no PDGF-BB)","Basal cholesterol efflux ([3]; MRE-269 100 nM alone, no rHDL, basal efflux about 2.6 %)","cholesterol efflux ([3]; MRE-269 100 nM together with rHDL 20 µg/mL, 24h, n=6) [%]","minimal effective concentration ([4]; Homo sapiens, basal incorporation) [µM]",minimal effective concentration ([4]; incorporation stimulated by PDGF-BB 10 ng/mL 24h) [µM],"Expression of PDGF-BB-inhibited ABCA1 gene [1, 5]","Expression of PDGF-BB-inhibited ABCG1 gene [2, 5]"
"CC(C)N(CCCCOCC(=O)NS(C)(=O)=O)c1cnc(-c2ccccc2)c(-c2ccccc2)n1 [Selexipag, 2-{4-[(5,6-diphenylpyrazin-2-yl)(isopropyl)amino]butoxy}-N-(methylsulfonyl)acetamide]",increased,increased,,,,,,
CC(C)N(CCCCOCC(=O)O)c1cnc(-c2ccccc2)c(-c2ccccc2)n1 [MRE-269],,,not modified,20.21,≥ 0.005,≥ 0.005,partially restored,partially restored

# Reference: EP4595961A1, “SELEXIPAG FOR USE IN THE TREATMENT AND/OR PREVENTION OF ATHEROSCLEROSIS” (SORBONNE UNIVERSITE, priority 2024, dated 2025)
